Test results published in paper PMC8153708, “Inhibition of soluble epoxide hydrolase by phytochemical constituents of the root bark of Ulmus davidiana var. japonica” (Journal of Enzyme Inhibition and Medicinal Chemistry, 2021).

Target: T1, soluble epoxide hydrolase (sEH) (Homo sapiens, UniProt P34913)
T1 construct: purchased Cayman 10011669
T1 sequence (P34913 1-555): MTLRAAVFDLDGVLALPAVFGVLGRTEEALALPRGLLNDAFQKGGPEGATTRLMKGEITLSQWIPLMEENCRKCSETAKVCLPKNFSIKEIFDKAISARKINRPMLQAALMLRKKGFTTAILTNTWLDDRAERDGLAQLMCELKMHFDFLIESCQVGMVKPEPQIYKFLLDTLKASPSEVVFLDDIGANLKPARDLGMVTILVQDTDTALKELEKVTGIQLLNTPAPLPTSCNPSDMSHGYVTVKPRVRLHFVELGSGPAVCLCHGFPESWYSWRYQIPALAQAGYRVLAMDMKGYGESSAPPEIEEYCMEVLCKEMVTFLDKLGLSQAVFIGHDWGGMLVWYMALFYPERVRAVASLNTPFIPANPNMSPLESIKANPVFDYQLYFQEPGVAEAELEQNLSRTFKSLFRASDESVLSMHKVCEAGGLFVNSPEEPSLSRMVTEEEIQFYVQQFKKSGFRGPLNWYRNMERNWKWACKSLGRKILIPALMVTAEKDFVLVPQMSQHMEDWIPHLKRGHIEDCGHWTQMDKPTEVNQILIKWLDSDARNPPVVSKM
Test: sEH inhibition assay (PHOME fluorescent substrate)
Format: biochemical
Settings: 37 °C, mean ± SEM; for inhibition at 100 µM: 100 μM compound, after 40 min, read-out: Inhibition of compounds on sEH, 100 μM (%); for IC50: tested three times, read-out: Inhibition of compounds on sEH, IC50
Description: The sEH assay was performed as described previously, with minor modifications. For determining inhibitory activity, 130 µL of ∼83 µg/mL sEH in 25 mM bis-Tris–HCl buffer (pH 7.0) containing 0.1% BSA was added to either 20 µL of inhibitor dissolved in MeOH, or MeOH. Next, 50 µL of the 10 µM substrate (PHOME) was added to each mixture and incubated at 37 °C to allow for sEH hydrolysis.
Inhibitory activity was calculated using the following equations: (1) Inhibitoryactivityrate(%)=[(ΔC–ΔI)/ΔC]×100 where ΔC and ΔI are the intensity of the control and inhibitor, respectively, after 40 min. (2) y=y0+(a×x/b+x) where y0 is the minimum value of the y-axis, a is the difference between the maximum and minimum values, and b is the x value at 50% of the a value.
The results were analysed using Sigma Plot (Systat Software Inc., San Jose, CS).

Compound | inhibition at 100 µM [%] | IC50 [µM]
Oc1cc(O)c2c(c1)O[C@H](c1ccc(O)c(O)c1)[C@@H](O)C2 [Compound 5, (+)-catechin] | < 38 | 
OCc1ccc(O)cn1 [Compound 4, 6-hydroxymethyl-3-pyridinol] | 65.9 ± 0.8 | 26.3 ± 4.5
COc1cc(C2Oc3c(OC)cc(CCCO)cc3C2CO[C@@H]2OC[C@@H](O)[C@H](O)[C@H]2O)ccc1O (stereo partly drawn) [Compound 8, 2,3-dihydro-2–(4-hydroxy-3-methoxyphenyl)-5–(3-hydroxypropyl)-7-methoxy-3-benzofuranylmethyl β-D-xylopyranoside] | 64.8 ± 1.4 | 36.9 ± 2.6
O=C1CC(c2ccc(O)cc2)Oc2cc(O)c(C3OC(CO)C(O)C(O)C3O)c(O)c21 [Compound 3, naringenin-6-C-β-D-glucopyranoside] | < 38 | 
O=C1c2c(O)cc(O)cc2OC(c2cc(O)cc(O)c2)C1O (centres unmarked) [Compound 10, 3,5,7-trihydroxy-2–(3,5-dihydroxyphenyl) chroman-4-one] | 70.7 ± 0.4 | 16.1 ± 3.2
COc1cc(C2Oc3c(OC)cc(CCCO)cc3C2CO)ccc1OC1OC(C)C(O)C(O)C1O (centres unmarked) [Compound 7, icariside E4] | 55.6 ± 0.7 | 23 ± 0.7
OCC1(O)COC(Oc2cc(O)c3c(c2)OC(c2ccc(O)c(O)c2)C(O)C3)C1O (stereo not drawn) [Compound 6, catechin-7-O-β-apiofuranoside] | 69.8 ± 2.2 | 16 ± 3.2
O=C1OC2Cc3c(O)cc(OC4OCC(O)(CO)C4O)cc3OC2c2ccc(O)c(O)c21 [Compound 1, (6aS,12aR)-3,4,8-trihydroxy-6a-7-dihydroisochromeno[4,3-b]chromen-5(12aH)-one-10-O-β-apiofuranoside] | 59.4 ± 2.5 | 14.5 ± 0.5
O=C(O)c1ccc(O)c(O)c1 [Compound 9, protocatechuic acid] | < 38 | 
O=C1CC(c2ccccc2)Oc2cc(O)c(C3OC(CO)C(O)C(O)C3O)c(O)c21 [Compound 2, pinocembrin 6-C-β-D-glucoside] | 91.8 ± 4.5 | 11.4 ± 2.3
